# Laboratory results: patent publication US8187831B2, “Determination of ions using ion-sensitive enzymes” (General Atomics, priority 2003, dated 2012)
# Read-outs that look alike come from different tables or passages of the source.
# What was measured:
# [1] = target: T1, chimeric 3′(2′),5′-bisphosphate nucleotidase (Saccharomyces cerevisiae, UniProt P32179); type: biochemical, Saccharomyces cerevisaie
# T1 construct: His6 (C)
# From the text: (§1) Assay Principle. […] Through enzymatic coupling, the phosphatase substrate, adenosine 3′,5′-bisphosphate (PAP) was converted to hypoxanthine by a series of enzymatic reactions to generate uric acid and hydrogen peroxide (H2O2). H2O2 generated reacts with N-Ethyl-N-(2-hydroxy-3-sulfopropyl)-3-m-toluidine (EHSPT) and 4-aminoantipyrine (4-AA) in the presence of peroxidase (POD) to form a quinone dye which had maximal absorbance at 556 nm. The rate of the quinine dye formation was inversely proportion to the concentration of sodium in serum samples. The enzymatic coupling reaction scheme is shown below in Table 3:
# Key Assay Characteristics. The sodium enzymatic assay was a two reagent (R1 and R2) based kinetic assay system. The results were obtained in 10 min by measuring absorbance at 550 nm. No off line pretreatment was needed.
# (§2) Assay Procedure. • 1. Reconstituted R1 and R2 reagents as described in Reagent Preparation section and kept the reconstituted R1 and R2 reagents on ice bath. • 2. In a cuvette, mixed 180 μL of Reagent R1 and 20 μL of serum sample and incubated at 37° C. for 1 minute and then added 85 μL of Reagent 2. • 3. Read absorbance (550 nm) at 3 min (2 min after addition of Reagent 2) as A1. Incubated for a further 7 min and read the absorbance at 10 min as A2. • 4. Calculated ΔA=A2−A1
# Calibration. This assay was calibrated daily using the enclosed low and high sodium standards. A calibration curve was constructed by plotting the ΔA values of the standards against the corresponding sodium concentrations. The sodium concentration of the sample was read from the calibration curve.
# [2] = target: T1, chimeric 3′(2′),5′-bisphosphate nucleotidase; experiment: biochemical; design: species or system Saccharomyces cerevisaie
# From the text: as §1, with “(H2O2). The” for “(H2O2).”, “reacted” for “reacts”, “lithium” for “sodium”, “6.” for “3:”
# Key Assay Characteristics. The lithium enzymatic assay was a two reagent (R1 and R2) based kinetic assay system. The results were obtained in 10 min by measuring absorbance at 550 nm. No off line pretreatment was needed.
# as §2, with “5” for “20”, “6 minutes” for “3 min (2 min after addition of Reagent 2)”, “3 more minutes” for “a further 7 min”, “9 minute” for “10 min”
# Calibration and Quality Control. The assay was calibrated daily using the enclosed low and high lithium standards. The calibration curve was constructed by plotting the ΔA values of the standards against the corresponding lithium concentrations. The lithium concentration of the sample was read from the calibration curve. The assay should be calibrated daily.
# T1 sequence (P32179 other isoform, or with tags, fused parts or gaps): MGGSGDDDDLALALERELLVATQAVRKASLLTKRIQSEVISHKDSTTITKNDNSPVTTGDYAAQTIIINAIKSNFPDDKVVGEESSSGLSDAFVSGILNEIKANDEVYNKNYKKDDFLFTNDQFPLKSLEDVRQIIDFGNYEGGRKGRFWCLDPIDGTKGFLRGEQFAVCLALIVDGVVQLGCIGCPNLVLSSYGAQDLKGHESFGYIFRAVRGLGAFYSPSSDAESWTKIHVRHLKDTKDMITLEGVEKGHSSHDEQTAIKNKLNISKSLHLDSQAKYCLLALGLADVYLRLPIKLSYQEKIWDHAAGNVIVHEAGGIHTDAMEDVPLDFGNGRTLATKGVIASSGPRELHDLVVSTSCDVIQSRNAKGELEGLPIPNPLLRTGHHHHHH
compound,measurement,setting,value
[Ca+2].[Cl-].[Cl-] [CaCl2],Interference with sodium assay,[1]; substance at 5 mM,not interfered
[Ca+2] [Ca^2+],Interference with lithium assay,[2]; substance at 4.0 mM,not interfered
[Cl][Cu][Cl] [CuCl2],Interference with sodium assay,[1]; substance at 0.25 mM,not interfered
[Cu+2] [Cu^2+],Interference with lithium assay,[2]; substance at 0.25 mM,not interfered
[Cl][Fe]([Cl])[Cl] [FeCl3],Interference with sodium assay,[1]; substance at 0.25 mM,not interfered
[Fe+3] [Fe^3+],Interference with lithium assay,[2]; substance at 0.25 mM,not interfered
[Cl-].[K+] [KCl],Interference with sodium assay,[1]; substance at 10 mM,not interfered
[K+] [K^+],Interference with lithium assay,[2],not interfered
[Mg+2] [Mg^2+],Interference with lithium assay,[2]; substance at 2.0 mM,not interfered
Cl.N [NH4Cl],Interference with sodium assay,[1],not interfered
N [NH4^+],Interference with lithium assay,[2]; substance at 0.5 mM,not interfered
[Cl-].[Na+] [NaCl],Interference with sodium assay,[1],not interfered
[Cl-].[Cl-].[Zn+2] [ZnCl2],Interference with sodium assay,[1]; substance at 0.25 mM,not interfered
[Zn+2] [Zn^2+],Interference with lithium assay,[2]; substance at 0.25 mM,not interfered
O=C1O[C@H]([C@@H](O)CO)C(O)=C1O [ascorbic acid],Interference with sodium assay,[1]; substance at 5 mM,not interfered
same,Interference with lithium assay,[2]; substance at 5.0 mM,not interfered
"[Li] [lithium, reference compound]",IC50,[2]; read-out: IC50 (nucleotidase activity sensitive to lithium concentration),100 µM
[Na+] [sodium],IC50,[1]; read-out: IC50 (nucleotidase activity sensitive to sodium concentration),20 mM
same,Interference with lithium assay,[2]; substance at 200 mM,not interfered
KPi,Interference with sodium assay,[1]; substance at 1.5 mM,not interfered
triglyceride,Interference with sodium assay,[1]; substance at 250 mg/dl,not interfered
